Reference: PubChem BioAssay AID2060894 (Molecular Pharmacology Branch, DTP, NCI, 2025)
pIC50: −log10 of the molar value.

Tested on: K12877-001-R-J1-PDC complex spheroid viability
Experiment: Anticancer human tumor K12877-001-R-J1-PDC patient-derived lung adenocarcinoma cell line growth inhibition [RAS]
Details: for pIC50: curve of first compound; for viability, T/C: stronger effect = lower value
Description: RAS pathway inhibitors in Combinations in Complex Spheroids
A high-throughput screen of multi-cell type tumor spheroids was designed to identify active combinations of RAS pathway inhibitors and targeted small molecules. Complex spheroids include a stromal component modeled by human endothelial cells (HUVEC) and fibroblasts modeled by human mesenchymal stem cells (MSCs). The concentration ranges selected for each drug and investigational agent were based upon clinically achievable concentrations if the clinical Cmax of the agent was known.
Compounds. The drugs and investigational agents: abemaciclib (NSC768073), cobimetinib (NSC768068), divarasib (GDC6063, NSC841802), docetaxel (NSC628503), GDC-1971 (RLY-1971, NSC841576), gemcitabine (NSC613327), inavolisib (NSC800729), ipatasertib (NSC767898), KB-0742 (NSC834161), MRTX-1133 (NSC836407), osimertinib (NSC779217), RMC-4630 (NSC839698), RMC-6236 (NSC851965), RMC-6291 (NSC852671), Ro-3306 (NSC812927), sapanisertib (NSC764658), SN-38 (NSC673596), staurosporine (NSC755774), SY5609 (NSC837396), and tovorafenib (DAY101, NSC766906), were obtained from the National Cancer Institute (NCI) Developmental Therapeutics Program Chemical Repository. The FDA-approved anticancer drug set is available from the NCI Developmental Therapeutics Program. […] The stock solutions were prepared in dimethyl sulfoxide (DMSO, Sigma-Aldrich, St. Louis, MO, cat. D2650) at 800-fold the tested concentration and stored at -70 degrees C prior to their use. All drugs and investigational agents were tested over a range starting from a high concentration at or near the clinical Cmax and decreasing in half-log increments. If the clinical Cmax for an agent had not been determined, the highest concentration tested was 10 microM.
Cell Culture. All cells were maintained in an incubator at 37 degrees C and 5% CO2 with 95% humidity. The PDC lines were cultured according to standard operating procedures established by the NCI PDMR. All PDCs were thawed and cultured in Matrigel-coated flasks prepared with a working solution of 1X Ham's F-12 nutrient mix, without supplementation (Invitrogen, Waltham, MA, cat. 11765054), 100 U/mL penicillin-streptomycin (Invitrogen, cat. 15140122), and 2.5% Matrigel (Corning Inc., Corning, NY, cat. 354248) for the first three passages. The 362531-283-R-J2-PDC and 782815-120-R-J1-PDC lines were cultured in 6C/Colon 1B media, which includes advanced DMEM/F-12 (Thermo Fisher Scientific, cat. 12634028), 10 mM HEPES (Thermo Fisher Scientific, cat. 15630080), 1X GlutaMAX supplement (Thermo Fisher Scientific, cat. 35050061), 0.1 mg/mL primocin (InvivoGen, San Diego, CA, cat. ant-pm-2), 10% defined fetal bovine serum, heat inactivated (HyClone Laboratories Inc., Logan, UT, cat. SH30070.03HI), 50% L-WRN conditioned media (ATCC, cat. CRL-3276), 1.25 mM N-Acetyl-L-cysteine (Sigma-Aldrich, cat. A9165), 10 mM nicotinamide (Sigma-Aldrich, cat. N0636), 1X B-27 supplement (Thermo Fisher Scientific, cat. 17504044), 1X N-2 supplement (Thermo Fisher Scientific, cat. 17502048), 50 ng/mL human EGF (Thermo Fisher Scientific, cat. PHG0311), and 10 microM Y-27632 dihydrochloride (Tocris Bioscience, cat. 1254). The K12877-001-R-J1-PDC line was cultured in 6I media, which includes all 6C/Colon 1B media plus 10 ng/mL human FGF-10 (PeproTech, cat. 100-26), 1 ng/mL human FGF-2 (PeproTech, cat. 100-18B), 1 µM prostaglandin E2 (Tocris Bioscience, cat. 2296), […] hydrocortisone (Sigma-Aldrich, cat. H4001), and […] bovine insulin (Sigma-Aldrich, cat. I6634). The K86415-001-R-J1-PDC line was cultured in 6D media, which includes all 6C/Colon 1B media components minus the L-WRN conditioned media. The 485176-168-R4-J1-PDC was cultured in PANC media, which includes all 6C/Colon 1B media plus 100 ng/mL human FGF-10 (PeproTech, cat. 100-26), 500 nM SB-431542 (Selleckchem, cat. S1067), and 10 nM gastrin (Tocris Bioscience, cat. 3006). […]

[1] = second compound 0.0316 µM, first compound 0.0316 µM
[2] = second compound 0.0316 µM, first compound 0.1 µM
[3] = second compound 0.0316 µM, first compound 0.316 µM
[4] = second compound 0.0316 µM, first compound 1 µM
[5] = second compound 0.0316 µM, first compound 3.16 µM
[6] = second compound 0.0316 µM, first compound 10 µM
[7] = second compound 0.1 µM, first compound 0.0316 µM
[8] = second compound 0.1 µM, first compound 0.1 µM
[9] = second compound 0.1 µM, first compound 0.316 µM
[10] = second compound 0.1 µM, first compound 1 µM
[11] = second compound 0.1 µM, first compound 3.16 µM
[12] = second compound 0.1 µM, first compound 10 µM
[13] = second compound 0.316 µM, first compound 0.0316 µM
[14] = second compound 0.316 µM, first compound 0.1 µM
[15] = second compound 0.316 µM, first compound 0.316 µM
[16] = second compound 0.316 µM, first compound 1 µM
[17] = second compound 0.316 µM, first compound 3.16 µM
[18] = second compound 0.316 µM, first compound 10 µM
[19] = second compound 1 µM, first compound 0.0316 µM
[20] = second compound 1 µM, first compound 0.1 µM
[21] = second compound 1 µM, first compound 0.316 µM
[22] = second compound 1 µM, first compound 1 µM
[23] = second compound 1 µM, first compound 3.16 µM
[24] = second compound 1 µM, first compound 10 µM
[25] = second compound 3.16 µM, first compound 0.0316 µM
[26] = second compound 3.16 µM, first compound 0.1 µM
[27] = second compound 3.16 µM, first compound 0.316 µM
[28] = second compound 3.16 µM, first compound 1 µM
[29] = second compound 3.16 µM, first compound 3.16 µM
[30] = second compound 3.16 µM, first compound 10 µM
[31] = second compound 10 µM, first compound 0.0316 µM
[32] = second compound 10 µM, first compound 0.1 µM
[33] = second compound 10 µM, first compound 0.316 µM
[34] = second compound 10 µM, first compound 1 µM
[35] = second compound 10 µM, first compound 3.16 µM
[36] = second compound 10 µM, first compound 10 µM
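Further: spheroids exposed to agents for one week before readout.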

CC1(O)CCCC1n1c(=O)c(C(F)F)cc2cnc(NC3CCN(S(C)(=O)=O)CC3)nc21 (stereo unspecified) + C#Cc1c(F)ccc2cc(O)cc(-c3ncc4c(N5CC6CCC(C5)N6)nc(OCC56CCCN5CC(F)C6)nc4c3F)c12
pIC50 (second compound 0.0316 µM): 5.48 | pIC50 (second compound 0.1 µM): 5.51 | pIC50 (second compound 0.316 µM): 5.41 | pIC50 (second compound 1 µM): 5.40 | pIC50 (second compound 3.16 µM): 5.38 | pIC50 (second compound 10 µM): 5.46 | viability, T/C [1]: 98.5% | viability, T/C [2]: 115% | viability, T/C [3]: 77.2% | viability, T/C [4]: 72.1% | viability, T/C [5]: 60.9% | viability, T/C [6]: 3.3% | viability, T/C [7]: 112% | viability, T/C [8]: 115% | viability, T/C [9]: 87.7% | viability, T/C [10]: 66% | viability, T/C [11]: 62.7% | viability, T/C [12]: 3.47% | viability, T/C [13]: 119% | viability, T/C [14]: 104% | viability, T/C [15]: 85.3% | viability, T/C [16]: 81.1% | viability, T/C [17]: 72.3% | viability, T/C [18]: 3.03% | viability, T/C [19]: 106% | viability, T/C [20]: 106% | viability, T/C [21]: 84.7% | viability, T/C [22]: 83% | viability, T/C [23]: 67.2% | viability, T/C [24]: 3.27% | viability, T/C [25]: 120% | viability, T/C [26]: 93.1% | viability, T/C [27]: 93.3% | viability, T/C [28]: 80% | viability, T/C [29]: 74.1% | viability, T/C [30]: 3.16% | viability, T/C [31]: 92% | viability, T/C [32]: 87% | viability, T/C [33]: 71.6% | viability, T/C [34]: 76.9% | viability, T/C [35]: 56.3% | viability, T/C [36]: 2.77%

CCC(CC)c1cc(NC2CCC(N)C2)n2nccc2n1 (stereo unspecified) + C#Cc1c(F)ccc2cc(O)cc(-c3ncc4c(N5CC6CCC(C5)N6)nc(OCC56CCCN5CC(F)C6)nc4c3F)c12
pIC50 (second compound 0.0316 µM): 5.81 | pIC50 (second compound 0.1 µM): 5.77 | pIC50 (second compound 0.316 µM): 5.79 | pIC50 (second compound 1 µM): 5.74 | pIC50 (second compound 3.16 µM): 5.80 | pIC50 (second compound 10 µM): 5.84 | viability, T/C [1]: 89.6% | viability, T/C [2]: 99.2% | viability, T/C [3]: 91.7% | viability, T/C [4]: 78.1% | viability, T/C [5]: 2.8% | viability, T/C [6]: 1.63% | viability, T/C [7]: 107% | viability, T/C [8]: 92.8% | viability, T/C [9]: 103% | viability, T/C [10]: 89.6% | viability, T/C [11]: 2.62% | viability, T/C [12]: 1.37% | viability, T/C [13]: 114% | viability, T/C [14]: 111% | viability, T/C [15]: 93.4% | viability, T/C [16]: 83.6% | viability, T/C [17]: 3.3% | viability, T/C [18]: 1.42% | viability, T/C [19]: 102% | viability, T/C [20]: 88.8% | viability, T/C [21]: 105% | viability, T/C [22]: 102% | viability, T/C [23]: 2.94% | viability, T/C [24]: 1.04% | viability, T/C [25]: 109% | viability, T/C [26]: 105% | viability, T/C [27]: 103% | viability, T/C [28]: 81.1% | viability, T/C [29]: 2.74% | viability, T/C [30]: 1.05% | viability, T/C [31]: 102% | viability, T/C [32]: 86.2% | viability, T/C [33]: 93.3% | viability, T/C [34]: 72.4% | viability, T/C [35]: 2.41% | viability, T/C [36]: 1.21%

CCN1CCN(Cc2ccc(Nc3ncc(F)c(-c4cc(F)c5nc(C)n(C(C)C)c5c4)n3)nc2)CC1 + C#Cc1c(F)ccc2cc(O)cc(-c3ncc4c(N5CC6CCC(C5)N6)nc(OCC56CCCN5CC(F)C6)nc4c3F)c12
pIC50 (second compound 0.0316 µM): < 6.00 | pIC50 (second compound 0.1 µM): < 6.00 | pIC50 (second compound 0.316 µM): < 6.00 | pIC50 (second compound 1 µM): < 6.00 | pIC50 (second compound 3.16 µM): < 6.00 | pIC50 (second compound 10 µM): < 6.00 | viability, T/C (second compound 0.0316 µM, first compound 0.00316 µM): 106% | viability, T/C (second compound 0.0316 µM, first compound 0.01 µM): 101% | viability, T/C [1]: 106% | viability, T/C [2]: 85.6% | viability, T/C [3]: 118% | viability, T/C [4]: 97.2% | viability, T/C (second compound 0.1 µM, first compound 0.00316 µM): 97.9% | viability, T/C (second compound 0.1 µM, first compound 0.01 µM): 102% | viability, T/C [7]: 113% | viability, T/C [8]: 97.8% | viability, T/C [9]: 118% | viability, T/C [10]: 88.4% | viability, T/C (second compound 0.316 µM, first compound 0.00316 µM): 115% | viability, T/C (second compound 0.316 µM, first compound 0.01 µM): 107% | viability, T/C [13]: 98.6% | viability, T/C [14]: 99.2% | viability, T/C [15]: 109% | viability, T/C [16]: 108% | viability, T/C (second compound 1 µM, first compound 0.00316 µM): 109% | viability, T/C (second compound 1 µM, first compound 0.01 µM): 113% | viability, T/C [19]: 96.7% | viability, T/C [20]: 104% | viability, T/C [21]: 108% | viability, T/C [22]: 82.2% | viability, T/C (second compound 3.16 µM, first compound 0.00316 µM): 108% | viability, T/C (second compound 3.16 µM, first compound 0.01 µM): 105% | viability, T/C [25]: 97% | viability, T/C [26]: 94.1% | viability, T/C [27]: 76.1% | viability, T/C [28]: 83.9% | viability, T/C (second compound 10 µM, first compound 0.00316 µM): 105% | viability, T/C (second compound 10 µM, first compound 0.01 µM): 84.8% | viability, T/C [31]: 90.4% | viability, T/C [32]: 92.3% | viability, T/C [33]: 87.2% | viability, T/C [34]: 56.7%
